In assay [1] the test system is lung cancer stem cells. The experiment in a line: Co-administration with chemotherapy drugs, lung cancer stem cells. In kind it is cell-based, human. An excerpt: (§1) The definition of half maximal inhibitory concentration (IC50) is the concentration for survival rate of 50% under the reaction with drugs or compounds.
(§2) Cisplatin: cis-diammineplatinum(II) dichloride (Sigma-Aldrich, USA)
(§3) Taxol: Paclitaxel (Sigma-Aldrich, USA)
(§4) According to the pretested half maximal inhibitory concentration (IC50) of D1˜D5, different cancer stem cells were used to test the cytotoxic concentration for (1) the co-administration of A. camphorata extracts with the chemotherapy drug, Cisplatin; (2) the co-administration of A. camphorata extracts with the chemotherapy drug, Taxol.

The test system of assay [2] is breast cancer stem cells. The assay can be described thus: Co-administration with chemotherapy drugs, breast cancer stem cells. In kind it is cell-based.
Description: as §1, §2, §3, §4

Assay [3] concerns Hepatoma cancer stem cells. The assay can be described thus: Co-administration with chemotherapy drugs, hepatoma cancer stem cells. In kind it is cell-based.
Description: as §1, §2, §3, §4

Assay [4] relates to Glioblastomas multiform cancer stem cells. The assay can be described thus: Co-administration with chemotherapy drugs, GBM cancer stem cells. In kind it is cell-based.
Description: as §1, §2, §3, §4

In assay [5] the test system is Head and neck squamous cell carcinoma cancer stem cells. The assay can be described thus: Co-administration with chemotherapy drugs, HNSCC cancer stem cells. The format is cell-based.
Description: as §1, §2, §3, §4

For assay [6], the system named is colorectal cancer stem cells. The assay can be described thus: Co-administration with chemotherapy drugs, colorectal cancer stem cells. The format is cell-based.
Description: as §1, §2, §3, §4

For assay [7], the system named is Lung adenocarcinoma CD133 positive cancer stem cells. The experiment in a line: MTT cytotoxicity test, lung adenocarcinoma CD133 positive cancer stem cells. The format is cell-based.
Description: (§5) The principle of cytotoxic activity test (MTT assay) is that succinate dehydrogenase in the mitochondria of a living cell can reduce MTT (3-(4,5-dimethylthiazol-2-yl)-2,5-diphenyltetrazolium bromide), and blue-violet formazan was formed under reaction with cytochrome C. Generally, the amount of formazan generated is proportional to the activity of the mitochondria and the number of living cells. After adding dimethyl sulfoxide (DMSO) to dissolve formazan, the number of living cells can be estimated by the optical density (OD) value.
as §1
(Formazan colour is commonly taken as a measure of viable cells.)

In assay [8] the test system is cancer stem cells. The experiment in a line: MTT cytotoxicity tests of 4-acetyl-antroquinonol B, summary in words. The format is cell-based. As to conditions: lung adenocarcinoma CD133 positive, oral, GBM, breast and colorectal cancer stem cells.
Description: as §5

Assay [9] concerns human lung cancer stem cells (Lung CSC). The assay can be described thus: MTT cytotoxicity test, lung cancer stem cells. The format is cell-based. The text has this:
(§6) The purpose of the present invention is to screen for the A. camphorata extracts with anti-cancer activity. MTT (3-(4,5-dimethylthiazol-2-yl)-2,5-diphenyltetrazolium bromide) assay was used to complete the cytotoxicity test. Human lung cancer stem cells (lung CSC), human Adult fibroblast-1 (AF-1), glioblastoma multiforme cancer stem cells (GBM CSC), human Adult fibroblast-2 (AF-2), head and neck squamous cell carcinoma cancer stem cells (HNSCC CSC), colorectal cancer stem cells (CRC CSC), as well as breast cancer stem cells (Breast CSC), hepatoma cancer stem cells (hepatoma CSC), leukemia cancer stem cells (leukemia CSC) and gastric cancer stem cells (Gastric CSC) are used in cell experiments of the present invention.
(§7) The principle of cytotoxic activity test (MTT assay) is that succinate dehydrogenase in the mitochondria of a living cell can reduce MTT (3-(4,5-dimethylthiazol-2-yl)-2,5-diphenyltetrazolium bromide), and blue-violet formazan was formed under reaction with cytochrome C. Generally, the amount of formazan generated is proportional to the activity of the mitochondria and the number of living cells. After adding dimethyl sulfoxide (DMSO) to dissolve formazan, the number of living cells can be estimated by the optical density (OD) value. […]

For assay [10], the system named is Glioblastomas multiform cancer stem cells (GBM CSC). The experiment in a line: MTT cytotoxicity test, GBM cancer stem cells (subline not stated). In kind it is cell-based.
Description: as §6, §7

Assay [11] relates to colorectal cancer stem cells (CRC CSC). The experiment in a line: MTT cytotoxicity test, colorectal cancer stem cells. In kind it is cell-based.
Description: as §6, §7

The test system of assay [12] is oral cancer stem cells (Oral CSC). The assay can be described thus: MTT cytotoxicity test, oral cancer stem cells. In kind it is cell-based.
Description: as §5, §1

Assay [13] relates to breast cancer stem cells (Breast CSC). The assay can be described thus: MTT cytotoxicity test, breast cancer stem cells. The format is cell-based.
Description: as §6, §7

Take `CC(=O)O[C@H]1C(=O)[C@@]2(C)[C@H]([C@H](OC(=O)c3ccccc3)[C@]3(O)C[C@H](OC(=O)[C@H](O)[C@@H](NC(=O)c4ccccc4)c4ccccc4)C(C)=C1C3(C)C)[C@]1(OC(C)=O)CO[C@@H]1C[C@@H]2O` [Taxol, Paclitaxel]: the IC50 in [1] (Homo sapiens, read-out: Taxol IC50) is 0.0137 mg/L; in assay [2] (read-out: Taxol IC50), 0.00983 mg/L; in assay [3] (read-out: Taxol IC50), 0.0335 mg/L; in assay [4] (read-out: Taxol IC50), 0.0207 mg/L; in assay [5] (read-out: Taxol IC50), 0.0102 mg/L; in [6] (read-out: Taxol IC50) it was 0.0317 mg/L.
Regarding `COC1=C(OC)C(OC(C)=O)C(C/C=C(\C)CCC2(C)CCC(=O)O2)C(C)C1=O` (stereo not shown) [4-acetyl-antroquinonol B], the “half maximal inhibitory concentration (IC50) of 4-acetyl-antroquinonol B” value is 16.4 mg/L in assay [7]; 12.37 mg/L in [9]; 18.2 mg/L in [10]; 9.72 mg/L in assay [11]; 14.37 mg/L in assay [12]; 20.77 mg/L in assay [13]. Moreover, in assay [8], the “inhibitory effects on the growth of cancer stem cells (in words)” value is on record as “effective inhibitory effects on the growth of cancer stem cells”.
Take `N.N.[Cl][Pt][Cl]` [Cisplatin, cis-diammineplatinum(II) dichloride]: the “Cisplatin IC50” value came to 17.98 mg/L in assay [1]; 20.23 mg/L in [2]; 40.15 mg/L in assay [3]; 23.33 mg/L in assay [4]; 18.87 mg/L in assay [5]; 42.83 mg/L in [6].

As usually defined, the IC50 is the midpoint of a concentration-inhibition curve.

Values taken from patent US20130089627A1, “METHOD FOR TREATING A CANCER CAUSED BY CANCER STEM CELLS” (NEW BELLUS ENTERPRISES CO., LTD., priority 2011, published 2013).
